In ChEMBL document CHEMBL5352431 (Eur J Med Chem, 2022):
Several values for one entry are separate records, joined by “and”; a condition that tells them apart may be missing. Equal entries are not always repeated.

Tests used:
[1] = target: T1, Melatonin receptor type 1B (Homo sapiens, UniProt P49286); test: Displacement of 2-[125I]iodoMLT from human MT2 receptor expressed in mouse NIH3T3 cells incubated for 90 mins by Cheng-Prusoff equation analysis; assay type: cell-based
T1 sequence (P49286 whole entry): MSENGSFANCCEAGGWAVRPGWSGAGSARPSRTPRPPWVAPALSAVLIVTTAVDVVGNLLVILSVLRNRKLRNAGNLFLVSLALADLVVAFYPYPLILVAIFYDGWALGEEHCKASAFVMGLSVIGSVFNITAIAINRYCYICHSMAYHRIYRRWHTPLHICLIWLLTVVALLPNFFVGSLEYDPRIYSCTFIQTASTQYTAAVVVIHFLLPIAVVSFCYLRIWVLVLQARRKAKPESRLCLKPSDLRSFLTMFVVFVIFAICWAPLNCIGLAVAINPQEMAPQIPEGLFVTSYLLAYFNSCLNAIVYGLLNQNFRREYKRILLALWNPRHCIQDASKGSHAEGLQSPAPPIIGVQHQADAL

[2] = target: T2, Melatonin receptor type 1A (Homo sapiens, UniProt P48039); test: Displacement of 2-[125I]iodoMLT from human MT1 receptor expressed in mouse NIH3T3 cells incubated for 90 mins by Cheng-Prusoff equation analysis; assay type: cell-based
[3] = target: T2, Melatonin receptor type 1A; test: Binding affinity to MT1 receptor (unknown origin) assessed as inhibition constant
[4] = target: T1, Melatonin receptor type 1B; test: Binding affinity to MT2 receptor (unknown origin) assessed as inhibition constant
[5] = target: T2, Melatonin receptor type 1A; test: Displacement of 2-[125I]iodoMLT from recombinant human MT1 receptor expressed in African green monkey COS-7 cells incubated for 1.5 hrs by Cheng-Prusoff equation analysis; assay type: cell-based
[6] = target: T1, Melatonin receptor type 1B; test: Displacement of 2-[125I]iodoMLT from human MT2 receptor stably expressed in CHO cells by Cheng-Prusoff equation analysis; assay type: cell-based
[7] = target: T2, Melatonin receptor type 1A; test: Displacement of 2-[125I]iodoMLT from human MT1 receptor stably expressed in CHO cells by Cheng-Prusoff equation analysis; assay type: cell-based
[8] = target: T2, Melatonin receptor type 1A; test: Displacement of 2-[125I]iodoMLT from human MT1 receptor stably expressed in CHO cells incubated for 60 mins by Cheng-Prusoff equation analysis; assay type: cell-based

T2 sequence (P48039 whole entry): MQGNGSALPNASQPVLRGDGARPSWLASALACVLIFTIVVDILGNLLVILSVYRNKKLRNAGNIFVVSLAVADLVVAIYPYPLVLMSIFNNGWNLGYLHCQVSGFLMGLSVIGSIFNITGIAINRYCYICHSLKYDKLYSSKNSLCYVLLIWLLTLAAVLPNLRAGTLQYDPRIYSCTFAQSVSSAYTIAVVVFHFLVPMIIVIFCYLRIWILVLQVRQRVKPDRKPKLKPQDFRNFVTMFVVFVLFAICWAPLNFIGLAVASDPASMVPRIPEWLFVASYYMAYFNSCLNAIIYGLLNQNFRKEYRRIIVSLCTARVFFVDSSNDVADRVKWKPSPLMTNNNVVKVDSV

Structure (SMILES): COc1ccc2[nH]c(-c3ccccc3)c(CCNC(C)=O)c2c1
- Ki [1]: 0.038 nM
- Ki [2]: 0.0219 nM

Structure (SMILES): CC(=O)NCCc1c(-c2cccc(O)c2)oc2ccc3c(c12)CCCO3
- Ki [3]: 0.87 nM
- Ki [4]: 0.21 nM

Structure (SMILES): COc1ccc2[nH]c(Cc3ccccc3)c(CCNC(C)=O)c2c1
- Ki [5]: 31.6 nM

Structure (SMILES): COc1ccc2[nH]c(-c3ccc4ccccc4c3)c(CCNC(C)=O)c2c1
- Ki [1]: 1.1 nM
- Ki [2]: 36.3 nM

Structure (SMILES): COc1ccc2c(c1)c(CCNC(C)=O)c(-c1cccc3ccccc13)n2C
- Ki [6]: 0.302 nM and 0.38 nM and 0.288 nM
- Ki [7]: 40.7 nM and 97.7 nM and 33.1 nM
- Ki [1]: 0.309 nM and 0.575 nM and 0.126 nM
- Ki [2]: 12 nM and 33.9 nM and 12.9 nM

Structure (SMILES): COc1ccc2[nH]c(Oc3ccccc3)c(CCNC(C)=O)c2c1
- Ki [1]: 2.95 nM
- Ki [2]: 11.5 nM

Structure (SMILES): COc1ccc2[nH]c(Sc3ccccc3)c(CCNC(C)=O)c2c1
- Ki [1]: 0.0631 nM
- Ki [2]: 0.977 nM

Structure (SMILES): COc1cccc(N(CCNC(C)=O)c2cccc(CO)c2)c1
- Ki [8]: > 100 nM

Structure (SMILES): COc1ccc2[nH]c(-c3cccnc3)c(CCNC(C)=O)c2c1
- Ki [1]: 0.0603 nM
- Ki [2]: 0.17 nM

Structure (SMILES): COc1ccc2[nH]c(-c3cccc4[nH]ccc34)c(CCNC(C)=O)c2c1
- Ki [1]: 0.295 nM
- Ki [2]: 14.8 nM

Structure (SMILES): COc1ccc2[nH]c(-c3ccc(-c4ccccc4)cc3)c(CCNC(C)=O)c2c1
- Ki [1]: 5.01 nM
- Ki [2]: 16.2 nM

Structure (SMILES): COc1ccc2[nH]c(-c3cccc4ccccc34)c(CCNC(C)=O)c2c1
- Ki [1]: 0.191 nM
- Ki [2]: 15.5 nM

Structure (SMILES): COc1ccc2[nH]c(-c3cccc4ncccc34)c(CCNC(C)=O)c2c1
- Ki [1]: 2.69 nM
- Ki [2]: 14.8 nM
